From patent publication US7807368B2, “Cyclin-dependent kinase inhibitors as targets for opiod growth factor treatment” (priority 2006, dated 2010)

Legend:
p21 = assay: Western blot of p21 in PANC-1 cells; format: cell-based, human; details: synchronized PANC-1 cells, 6 hours
Protocol: (§1) Human pancreatic cancer cell lines BxPC-3, PANC-1, and Capan-2 were obtained from the American Type Culture Collection (Manassas, Va.), and cultured in RPMI, Dulbecco's Modified Medium, or McCoy's 5A medium, respectively. All media were supplemented with 10% fetal bovine serum, 1.2% sodium bicarbonate, and 0.25% antibiotics (5000 units/ml penicillin, 5 μg/ml streptomycin and 10 μg/ml neomycin). OGF was purchased from Sigma-Aldrich (St. Louis, Mo.), dissolved in sterile water, and used at a final concentration of 10^−6 M.
Synchronized cells (2×10^6) from each treatment were solubilized in 200 μl RIPA buffer (1×PBS, 10 μM IGEPAL, 1 mg/ml SDS, 5 mg/ml deoxycholic acid), containing protease and phosphatase inhibitors (2 μg/ml aprotinin, 3 mg/ml phenylmethyl sulfonyl fluoride, 1 mM sodium orthovanidate, 1 μM okadaic acid). Total protein concentrations were measured using the DC protein assay kit (Bio-Rad Laboratories, Hercules, Calif.). Equal amounts of protein (40 μg) were subjected to 10% SDS-PAGE followed by transfer of proteins onto polyvinylidene difluoride (Millipore, Billerica, Mass.) using standard protocols.
The p21-targeted siRNAs were obtained from Santa Cruz Biotechnology, and negative control siRNAs were purchased from Ambion (Ambion, Inc., Austin, Tex.). For transfection, 2×10^5 cells per well were seeded in 6-well plates containing 1 ml of media without antibiotics. […]

BxPC-3 cells = assay: Growth of BxPC-3 cells transfected with p21 siRNA or negative control siRNA; format: cell-based, human; details: for reduction in growth: negative control siRNA-transfected BxPC-3 cells
Protocol: (§2) The p21-targeted siRNAs were obtained from Santa Cruz Biotechnology, and negative control siRNAs were purchased from Ambion (Ambion, Inc., Austin, Tex.). For transfection, 2×10^5 cells per well were seeded in 6-well plates containing 1 ml of media without antibiotics. For each well, 1 μl of siRNA stock (20 μM) was mixed with 175 μl of serum-free media. Two μl of Oligofectamine reagent (Invitrogen, Carlsbad, Calif.) was added to prewashed cells in each well, making the final concentration for siRNA approximately 20 nM. Cells were incubated for 4 hours at 37° C. prior to the addition of OGF. Eighteen hours later, 1 ml fresh complete media with or without OGF was added to the cultures; media and OGF were replaced daily. At the indicated time points, cells were collected for growth curves or Western blotting.

Cdk4 kinase activity = assay: Immunoprecipitation and Rb kinase assay (Cdk4 kinase activity) in SCC-1 cells; format: cell-based, human
Protocol: To quantify expression levels or kinase activity, the optical density of each band was determined by densitometry and analyzed by QuickOne (Bio-Rad Laboratories). Each value was normalized to β-actin from the same blot. To report the changes due to OGF treatment, the fold increase was calculated by dividing the normalized value from the OGF treated samples by the normalized value of control samples at each time point; thus, increases due to OGF have values greater than one, and decreases due to OGF have values less than one.
Immunoprecipitation and Rb kinase assay. For immunoprecipitating protein complexes, cell extracts were prepared as follows: 2×10^6 cells per sample were rinsed in cold PBS followed by lysis in 100 μl NP40 immunoprecipitation buffer (1% NP-40, 50 mM Tris-HCI (pH7.4), 150 mM NaCl, 1 mM EDTA, 10 mM NaF, 2 μg/ml antipain, 1 mM sodium orthovanidate, 2 μg/ml aprotinin, 2 μg/ml leupeptin, 1 μg/ml pepstatin A, 1 μM okadaic acid, 1 mM PMSF, 1 mM dithiothreitol (DTT). For each immunoprecipitation reaction mixture, a total of 500 μg of protein extract was used. The lysates were then subjected to immunoprecipitation using 10 μl polyclonal antibody against Cdk4 prebound with agarose conjugate (sc-601 AC, Santa Cruz) for 60 min at 4° C. Then immunoprecipitates were mixed with kinase buffer (25 mM HEPES, pH7.4, 10 mM MgCl2), 5 μCi γ^32P-ATP, and Rb(769-921) (sc-4112, Santa Cruz) as the substrate for Cdk4. After incubation for 30 min at 30° C., with occasional mixing, the reaction was stopped by the addition of 2× sample loading buffer (0.5 M Tris-HCl, pH 6.8, 4.4% (w/v) SDS, 20% (v/v) glycerol, 2% (v/v) 2-mercaptoethanol, and bromophenol blue in distilled/deionized water). Proteins in the reaction mixture were separated by a 10% SDS-PAGE gel. The Cdk4 kinase activity pattern was visualized by autoradiography of phosphorylated Rb.

Capan-2 cells = assay: Growth curves of Capan-2 cells transfected with p21 siRNA or negative control siRNA; format: cell-based, human
Protocol: as §1, §2

[1] = tested on: BxPC-3 human pancreatic cancer cells; assay: Growth curves of BxPC-3 cells; format: cell-based; details: 10^-6 M OGF
Protocol: as §1
For growth curves, cells were seeded in 6-well plates at an initial density of 2×10^5 cells/well. Fresh media and OGF were added 24 hours after initial seeding, and media and OGF were replaced daily. At appropriate times, the cells were washed with PBS, trypsinized, and viable cell numbers were counted by trypan blue exclusion using a hemacytometer.

Substance: [Met^5]-enkephalin [OGF]
- p21 expression relative to control cells (p21): increased p21 expression
- effect on cell growth of cells transfected with p21 siRNA (BxPC-3 cells; BxPC-3 cells, 10^-6 M OGF): no effect
- Cell numbers vs transfected cells receiving sterile water (BxPC-3 cells; BxPC-3 cultures transfected with negative control siRNA, 10^-6 M OGF (FIG. 8)): significantly reduced
- reduction in growth (BxPC-3 cells; 10^-6 M OGF, 48 hours): 17.8%
- reduction in growth (BxPC-3 cells; 10^-6 M OGF, 72 hours): 28.6%
- reduction in growth (BxPC-3 cells; 10^-6 M OGF, 96 hours): 35.8%
- reduction in growth (BxPC-3 cells; 10^-6 M OGF, 120 hours): 33.0%
- Cdk4 kinase activity vs control cells at each respective time (Cdk4 kinase activity; OGF for 3, 6, 9, or 12 h (FIG. 1)): differed significantly
- Cdk4 kinase activity relative to controls (Cdk4 kinase activity; OGF for 6, 9, and 12 h): marked decrease
- Cdk4 kinase activity relative to controls (Cdk4 kinase activity; OGF for 3 h): transient increase
- effect on growth (Capan-2 cells; Capan-2 cells transfected with negative control siRNA, 48, 72, and 96 hours): did depress growth
- effect on growth of cells lacking p21 (Capan-2 cells; Capan-2 cells transfected with p21 siRNA): no inhibitory action
- cell numbers compared to control cultures ([1]; 48 hours): 66%
- cell numbers compared to control cultures ([1]; 72 hours): 55%
- mean doubling time ([1]; linear regression of growth data): 51 h
